Results: ChEMBL document CHEMBL5331051, “Cationic, amphipathic small molecules based on a triazine-piperazine-triazine scaffold as a new class of antimicrobial agents” (Eur J Med Chem, 2022)
In brackets after ≈: the same amount, converted by molar mass. Activity calls are given as the source filed them. The calls are words filed in the database; no cut-off is given here.

Tests used:
Escherichia coli [1] = test: Antibacterial activity against Escherichia coli KCTC 1682 strain assessed as bacterial growth inhibition measured after 6 hrs in presence of trypsin by radial diffusion assay; type: functional, organism-based
Escherichia coli [2] = test: Antibacterial activity against Escherichia coli KCTC 1682 strain assessed as bacterial growth inhibition measured after 6 hrs in presence of proteinase K by radial diffusion assay; type: functional, organism-based
Escherichia coli [3] = test: Antibacterial activity against Escherichia coli KCTC 1682 strain assessed as bacterial growth inhibition measured after 6 hrs in presence of chymotrypsin by radial diffusion assay; type: functional, organism-based
Cell membrane [4] = test: Induction of cell membrane depolarization in Staphylococcus aureus assessed as increase in fluorescence intensity at 2 times MIC by DiSC3(5) dye based fluorescence assay
Cell membrane [5] = test: Induction of cell membrane depolarization in Staphylococcus aureus assessed as increase in fluorescence intensity at 2 times MIC by SYTOX green staining based analysis
Escherichia coli [6] = test: Antibacterial activity against Escherichia coli KCTC 1682 strain assessed as bacterial growth inhibition measured after 6 hrs in presence of pepsin by radial diffusion assay; type: functional, organism-based
Erythrocyte = test: Hemolytic activity in sheep RBC assessed as minimal hemolytic concentration causing 10% hemolysis incubated for 1 hr by ELISA; type: toxicity, cell-based, Ovis aries
Cell membrane [7] = test: Induction of outer membrane permeabilization in Escherichia coli KCTC 1682 assessed as increase in fluorescence intensity at 2 to 8 ug/ml by NPN staining based analysis; conditions: dose 2-8 µg/ml
Cell membrane [8] = test: Induction of inner membrane permeabilization in Escherichia coli ML-35 assessed as increase in […] at 2 times MIC by ONPG staining based analysis
Enterococcus faecium = test: Antibacterial activity against vancomycin-resistant Enterococcus faecium ATCC 51559 strain assessed as bacterial growth inhibition measured at 18 to 24 hrs by microdilution assay; type: functional; conditions: time 18-24 hrs
Cell membrane [9] = test: Induction of cell membrane damage in Escherichia coli KCTC 1682 assessed as increase in fluorescent intensity at 2 times MIC incubated for 30 mins by PI staining based flow cytometry assay (reference value: 9.79 %); type: subcellular
Cell membrane [10] = test: Induction of cell membrane depolarization in Staphylococcus aureus assessed as fluorescence intensity at 2 to 16 times MIC by DiSC3(5) dye based fluorescence assay; type: subcellular
Pseudomonas aeruginosa [11] = test: Antibacterial activity against multidrug-resistant Pseudomonas aeruginosa CCARM 2095 strain assessed as bacterial growth inhibition measured at 18 to 24 hrs by microdilution assay; type: functional; conditions: time 18-24 hrs
Pseudomonas aeruginosa [12] = test: Bacteriostatic activity against multidrug-resistant Pseudomonas aeruginosa CCARM 2095 measured after 24 hrs by time-kill kinetics assay; type: functional, organism-based
Pseudomonas aeruginosa [13] = test: Synergistic antibacterial activity against multidrug-resistant Pseudomonas aeruginosa CCARM 2095 strain assessed as bacterial growth inhibition by checkerboard assay; type: functional
Staphylococcus aureus [14] = test: Antibacterial activity against methicillin-resistant Staphylococcus aureus CCARM 3095 strain assessed as bacterial growth inhibition measured at 18 to 24 hrs by microdilution assay; type: functional; conditions: time 18-24 hrs
Staphylococcus aureus [15] = test: Antibacterial activity against methicillin-resistant Staphylococcus aureus CCARM 3090 strain assessed as bacterial growth inhibition measured at 18 to 24 hrs by microdilution assay; type: functional; conditions: time 18-24 hrs
Pseudomonas aeruginosa [16] = test: Antibacterial activity against multidrug-resistant Pseudomonas aeruginosa CCARM 2095 strain assessed as bacterial growth inhibition by checkerboard assay; type: functional
Pseudomonas aeruginosa [17] = test: Additive antibacterial activity against multidrug-resistant Pseudomonas aeruginosa CCARM 2095 strain assessed as bacterial growth inhibition by checkerboard assay; type: functional
Staphylococcus aureus [18] = test: Antibacterial activity against methicillin-resistant Staphylococcus aureus CCARM 3089 strain assessed as bacterial growth inhibition measured at 18 to 24 hrs by microdilution assay; type: functional; conditions: time 18-24 hrs
Pseudomonas aeruginosa [19] = test: Bactericidal activity against multidrug-resistant Pseudomonas aeruginosa CCARM 2095 measured after 24 hrs by time-kill kinetics assay; type: functional, organism-based
Pseudomonas aeruginosa [20] = test: Antibacterial activity against multidrug-resistant Pseudomonas aeruginosa CCARM 2109 strain assessed as bacterial growth inhibition measured at 18 to 24 hrs by microdilution assay; type: functional; conditions: time 18-24 hrs

CC[C@H](C)[C@H](NC(=O)CN)C(=O)NCC(=O)N[C@@H](C)C(=O)N[C@H](C(=O)N[C@@H](CC(C)C)C(=O)N[C@@H](CCCCN)C(=O)N[C@H](C(=O)N[C@@H](CC(C)C)C(=O)N[C@H](C(=O)N[C@H](C(=O)NCC(=O)N[C@@H](CC(C)C)C(=O)N1CCC[C@H]1C(=O)N[C@@H](C)C(=O)N[C@@H](CC(C)C)C(=O)N[C@H](C(=O)N[C@@H](CO)C(=O)N[C@@H](Cc1c[nH]c2ccccc12)C(=O)N[C@H](C(=O)N[C@@H](CCCCN)C(=O)N[C@@H](CCCNC(=N)N)C(=O)N[C@@H](CCCCN)C(=O)N[C@@H](CCCNC(=N)N)C(=O)N[C@@H](CCC(N)=O)C(=O)N[C@@H](CCC(N)=O)C(N)=O)[C@@H](C)CC)[C@@H](C)CC)[C@@H](C)O)[C@@H](C)O)C(C)C)C(C)C [MELITTIN]
Activity (Escherichia coli [1]): inactive | Activity (Escherichia coli [2]): inactive | Activity (Escherichia coli [3]): inactive | Activity (Cell membrane [4]): Active | Activity (Cell membrane [5]): Active | Activity (Escherichia coli [6]): inactive | MHC (Erythrocyte): 3.2 µM | Activity (Cell membrane [7]): Active | Activity (Cell membrane [8]): Active | MIC (Enterococcus faecium): 0.0056 mM (≈ 15.9 µg/mL) | Flu intensity (Cell membrane [9]): 64.2% | Activity (Cell membrane [10]): inactive

O=C(N[C@H](CO)[C@H](O)c1ccc([N+](=O)[O-])cc1)C(Cl)Cl [CHLORAMPHENICOL]
MIC (Pseudomonas aeruginosa [11]): 6.33 mM (≈ 2040 µg/mL) | Activity (Pseudomonas aeruginosa [12]): inactive | MIC (Pseudomonas aeruginosa [13]): 1020 µg/mL | MIC (Staphylococcus aureus [14]): > 6.33 mM | MIC (Staphylococcus aureus [15]): > 6.33 mM | MIC (Pseudomonas aeruginosa [16]): 1020 µg/mL | MIC (Pseudomonas aeruginosa [17]): 1020 µg/mL | MIC (Enterococcus faecium): 1.58 mM (≈ 511 µg/mL) | MIC (Staphylococcus aureus [18]): 3.16 mM (≈ 1020 µg/mL) | Activity (Pseudomonas aeruginosa [19]): inactive | MIC (Pseudomonas aeruginosa [20]): > 6.33 mM
